According to patent publication US10428044B2, “3-amino-1,5,6,7-tetrahydro-4H-indol-4-ones” (Bayer Pharma Aktiengesellschaft, priority 2014, dated 2019):
Several values for one entry are separate records, joined by “and”; a condition that tells them apart may be missing. Equal values may be shown once.

target: (recombinant) catalytic domain of human Bub1 (amino acids 704-1085) (Homo sapiens (Human), UniProt O43683); test: Bub1 kinase assay (TR-FRET); format: biochemical; details: ATP 10 μM final, peptide substrate 1 μM final, 60 min at 22° C., read-out: Biological Assay: Bub1 kinase assay median IC50
Sequence (O43683 704-1085): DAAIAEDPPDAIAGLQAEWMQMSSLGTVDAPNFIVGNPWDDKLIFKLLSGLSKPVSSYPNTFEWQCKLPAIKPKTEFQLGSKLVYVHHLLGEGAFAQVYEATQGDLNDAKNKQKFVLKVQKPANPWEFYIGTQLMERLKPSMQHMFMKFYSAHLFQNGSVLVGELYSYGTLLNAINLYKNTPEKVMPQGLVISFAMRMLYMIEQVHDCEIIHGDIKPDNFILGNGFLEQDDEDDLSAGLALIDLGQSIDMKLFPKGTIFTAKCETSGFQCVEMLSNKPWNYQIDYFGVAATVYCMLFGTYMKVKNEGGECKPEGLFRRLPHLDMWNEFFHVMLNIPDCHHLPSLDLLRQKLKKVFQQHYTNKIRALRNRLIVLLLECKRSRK
Method: Examples were tested in selected biological assays one or more times. When tested more than once, data are reported as either average values or as median values, wherein • the average value, also referred to as the arithmetic mean value, represents the sum of the values obtained divided by the number of times tested, and • the median value represents the middle number of the group of values when ranked in ascending or descending order. If the number of values in the data set is odd, the median is the middle value. If the number of values in the data set is even, the median is the arithmetic mean of the two middle values.
To this end, 100-fold concentrated compound solutions (in DMSO) were previously prepared by serial dilution (1:3.4) of 2 mM stocks in a clear low volume 384-well source microtiter plate (Greiner Bio-One, Frickenhausen, Germany), from which 50 nl of compounds were transferred into a black low volume test microtiter plate from the same supplier. […] The resulting mixture (5 μL final volume) was incubated at 22° C. during 60 min., and the reaction was stopped by the addition of 5 μL of an aqueous EDTA-solution (50 mM EDTA, in 100 mM HEPES pH 7.5 and 0.2% (w/v) bovine serum albumin) which also contained the TR-FRET detection reagents (0.2 μM streptavidin-XL665 [Cisbio Bioassays, Codolet, France] and 1 nM anti-phosho-Serine antibody [Merck Millipore, cat. #35-002] and 0.4 nM LANCE EU-W1024 labeled anti-mouse IgG antibody [Perkin-Elmer, product no. AD0077, alternatively a Terbium-cryptate-labeled anti-mouse IgG antibody from Cisbio Bioassays can be used]). The stopped reaction mixture was further incubated 1 h at 22° C. in order to allow the formation of complexes between peptides and detection reagents. Subsequently, the amount of product was evaluated by measurement of the resonance energy transfer from the Eu-chelate-antibody complex recognizing the Phosphoserine residue to the streptavidin-XL665 bound to the biotin moiety of the peptide. […] The data were normalised using two sets of control wells for high- (=enzyme reaction without inhibitor=0%=Minimum inhibition) and low- (=all assay components without enzyme=100%=Maximum inhibition) Bub1 activity. IC50 values were calculated by fitting the normalized inhibition data to a 4-parameter logistic equation (Minimum, Maximum, IC50, Hill; Y=Max+(Min−Max)/(1+(X/IC50)Hill)).

| SMILES | IC50 |
| --- | --- |
| O=C1CCCc2[nH]c(-c3ccnc(NC(=O)C4C[C@@H]4F)c3)c(Nc3ccccc3)c21 (mixture of isomers) [Example 249, rel-(R,S/S,R)-2-fluoro-N-{4-[4-oxo-3-(phenylamino)-4,5,6,7-tetrahydro-1H-indol-2-yl]pyridin-2-yl}cyclopropanecarboxamide] | 16.4 nM and 7.55 nM |
| O=C1CCCc2[nH]c(-c3ccnc(NC(=O)C4C[C@H]4F)c3)c(Nc3ccccc3)c21 (mixture of isomers) [Example 252, rel-(S,S/R,R)-2-fluoro-N-{4-[4-oxo-3-(phenylamino)-4,5,6,7-tetrahydro-1H-indol-2-yl]pyridin-2-yl}cyclopropanecarboxamide] | 16.6 nM |
| CC1(C)CC(=O)c2c([nH]c(-c3ccnc(NC(=O)[C@@H]4C[C@H]4F)c3)c2Nc2ccccc2)C1 (racemic) [Example 254, (S,R)—N-{4-[6,6-dimethyl-4-oxo-3-(phenylamino)-4,5,6,7-tetrahydro-1H-indol-2-yl]pyridin-2-yl}-2-fluorocyclopropanecarboxamide] | 6.34 nM |
| CC1(C)CC(=O)c2c([nH]c(-c3ccnc(NC(=O)[C@H]4C[C@H]4F)c3)c2Nc2ccccc2)C1 (racemic) [Example 257, (R,R)—N-{4-[6,6-dimethyl-4-oxo-3-(phenylamino)-4,5,6,7-tetrahydro-1H-indol-2-yl]pyridin-2-yl}-2-fluorocyclopropanecarboxamide] | 59.7 nM |
| O=C1CCCc2[nH]c(-c3ccnc(NC(=O)C4CC4(F)F)c3)c(Nc3ccccc3)c21 (racemic) [Example 260, 2,2-difluoro-N-{4-[4-oxo-3-(phenylamino)-4,5,6,7-tetrahydro-1H-indol-2-yl]pyridin-2-yl}cyclopropanecarboxamide] | 23.6 nM |
| O=C1CCCc2[nH]c(-c3ccnc(NC(=O)C4CC4C(F)(F)F)c3)c(Nc3ccccc3)c21 (racemic) [Example 262, N-{4-[4-oxo-3-(phenylamino)-4,5,6,7-tetrahydro-1H-indol-2-yl]pyridin-2-yl}-2-(trifluoromethyl)cyclopropanecarboxamide] | 32.6 nM |
| O=C1CC2(CC2)Cc2[nH]c(-c3ccnc(NC(=O)[C@H]4C[C@@H]4F)c3)c(Nc3ccccc3)c21 (relative stereo) [Example 466, rel-(R,S)-2-fluoro-N-{4-[4′-oxo-3′-(phenylamino)-1′,4′,5′,7′-tetrahydrospiro[cyclopropane-1,6′-indol]-2′-yl]pyridin-2-yl}cyclopropanecarboxamide] | 5.03 nM |
| CC(C)C1CC(=O)c2c([nH]c(-c3ccncc3)c2Nc2ccccc2)C1 (single isomer, unassigned) [Example 17, 3-(phenylamino)-6-(propan-2-yl)-2-(pyridin-4-yl)-1,5,6,7-tetrahydro-4H-indol-4-one] | 4.04 nM |
| CC(C)C1CC(=O)c2c([nH]c(-c3ccncc3)c2Nc2ccccc2)C1 (single isomer, unassigned) [Example 18, 3-(phenylamino)-6-(propan-2-yl)-2-(pyridin-4-yl)-1,5,6,7-tetrahydro-4H-indol-4-one] | 5.09 nM |
| O=C1CC(C(F)(F)F)Cc2[nH]c(-c3ccncc3)c(Nc3ccccc3)c21 (single isomer, unassigned) [Example 440, 3-(phenylamino)-2-(pyridin-4-yl)-6-(trifluoromethyl)-1,5,6,7-tetrahydro-4H-indol-4-one] | 12.9 nM |
| O=C1CC(C(F)(F)F)Cc2[nH]c(-c3ccncc3)c(Nc3ccccc3)c21 (single isomer, unassigned) [Example 441, 3-(phenylamino)-2-(pyridin-4-yl)-6-(trifluoromethyl)-1,5,6,7-tetrahydro-4H-indol-4-one] | 5.72 nM |
| CC(C)[C@H]1CC(=O)c2c([nH]c(-c3ccnc(N)c3)c2Nc2ccc(F)cc2)C1 (stereo in doubt) [Example 167, 2-(2-aminopyridin-4-yl)-3-[(4-fluorophenyl)amino]-6-(propan-2-yl)-1,5,6,7-tetrahydro-4H-indol-4-one] | 53.1 nM |
| CC1(C)CC(=O)c2c([nH]c(-c3ccncc3)c2Nc2ccccc2)C1 [Example 1, 6,6-dimethyl-3-(phenylamino)-2-(pyridin-4-yl)-1,5,6,7-tetrahydro-4H-indol-4-one] | 6.25 nM |
| CC1(C)CC(=O)c2c([nH]c(-c3ccncc3Cl)c2Nc2ccccc2)C1 [Example 2, 2-(3-chloropyridin-4-yl)-6,6-dimethyl-3-(phenylamino)-1,5,6,7-tetrahydro-4H-indol-4-one] | 8.98 nM |
| Cc1cccc(Nc2c(-c3ccncc3)[nH]c3c2C(=O)CC(C)(C)C3)c1 [Example 3, 6,6-dimethyl-3-[(3-methylphenyl)amino]-2-(pyridin-4-yl)-1,5,6,7-tetrahydro-4H-indol-4-one] | 37.8 nM |
| CC1(C)CC(=O)c2c([nH]c(-c3ccncc3)c2Nc2cccc(Cl)c2)C1 [Example 4, 6,6-dimethyl-3-[(3-chlorophenyl)amino]-2-(pyridin-4-yl)-1,5,6,7-tetrahydro-4H-indol-4-one] | 15.9 nM |

| SMILES | IC50 |
| --- | --- |
| CC1(C)CC(=O)c2c([nH]c(-c3ccncn3)c2Nc2ccccc2)C1 [Example 5, 6,6-dimethyl-3-(phenylamino)-2-(pyrimidin-4-yl)-1,5,6,7-tetrahydro-4H-indol-4-one] | 25.2 nM |
| CC(C)C1CC(=O)c2c([nH]c(-c3ccncc3)c2Nc2ccccc2)C1 (stereo not shown) [Example 7, 3-(phenylamino)-6-(propan-2-yl)-2-(pyridin-4-yl)-1,5,6,7-tetrahydro-4H-indol-4-one] | 5.57 nM |
| O=C1CC(c2ccccc2)Cc2[nH]c(-c3ccncc3)c(Nc3ccccc3)c21 (stereo not shown) [Example 8, 6-Phenyl-3-phenylamino-2-(pyridin-4-yl)-1,5,6,7-tetrahydroindol-4-one] | 22.1 nM |
| O=C1CCCc2[nH]c(-c3ccncc3)c(Nc3ccccc3)c21 [Example 9, 3-(phenylamino)-2-(pyridin-4-yl)-1,5,6,7-tetrahydro-4H-indol-4-one] | 12.1 nM |
| CC1(C)CC(=O)c2c([nH]c(-c3ccncc3)c2Nc2ccc(Cl)cc2)C1 [Example 10, 3-[(4-chlorophenyl)amino]-6,6-dimethyl-2-(pyridin-4-yl)-1,5,6,7-tetrahydro-4H-indol-4-one] | 12.5 nM |
| CC1(C)CC(=O)c2c([nH]c(-c3ccncc3)c2Nc2ccc(F)cc2)C1 [Example 11, 3-[(4-fluorophenyl)amino]-6,6-dimethyl-2-(pyridin-4-yl)-1,5,6,7-tetrahydro-4H-indol-4-one] | 16.5 nM |
| CC1(C)CC(=O)c2c([nH]c(-c3ccncc3)c2Nc2cccc(Br)c2)C1 [Example 12, 3-[(3-bromophenyl)amino]-6,6-dimethyl-2-(pyridin-4-yl)-1,5,6,7-tetrahydro-4H-indol-4-one] | 15.4 nM |
| O=C1CC2(CCC2)Cc2[nH]c(-c3ccncc3)c(Nc3ccccc3)c21 [Example 13, 3′-(phenylamino)-2′-(pyridin-4-yl)-1′,7′-dihydrospiro[cyclobutane-1,6′-indol]-4′(5′H)-one] | 6.55 nM |
| Cc1cc(F)cc(Nc2c(-c3ccncc3)[nH]c3c2C(=O)CC(C)(C)C3)c1 [Example 14, 3-[(3-fluoro-5-methylphenyl)amino]-6,6-dimethyl-2-(pyridin-4-yl)-1,5,6,7-tetrahydro-4H-indol-4-one] | 10.8 nM |
| CCc1cccc(Nc2c(-c3ccncc3)[nH]c3c2C(=O)CC(C)(C)C3)c1 [Example 15, 3-[(3-ethylphenyl)amino]-6,6-dimethyl-2-(pyridin-4-yl)-1,5,6,7-tetrahydro-4H-indol-4-one] | 23.6 nM |
| CC1(C)CC(=O)c2c([nH]c(-c3ccncc3)c2Nc2cccc([N+](=O)[O-])c2)C1 [Example 16, 6,6-dimethyl-3-[(3-nitrophenyl)amino]-2-(pyridin-4-yl)-1,5,6,7-tetrahydro-4H-indol-4-one] | 27.2 nM |
| CC1(C)CC(=O)c2c([nH]c(-c3ccncc3)c2Nc2cc(F)cc(Cl)c2)C1 [Example 19, 3-[(3-chloro-5-fluorophenyl)amino]-6,6-dimethyl-2-(pyridin-4-yl)-1,5,6,7-tetrahydro-4H-indol-4-one] | 19.5 nM |
| O=C1CC(C(F)(F)F)Cc2[nH]c(-c3ccncc3)c(Nc3ccccc3)c21 (stereo not shown) [Example 20, 3-(phenylamino)-2-(pyridin-4-yl)-6-(trifluoromethyl)-1,5,6,7-tetrahydro-4H-indol-4-one] | 9.33 nM |
| CC1(C)CC(=O)c2c([nH]c(-c3ccncc3)c2Nc2ccc(F)c(F)c2)C1 [Example 21, 3-[(3,4-difluorophenyl)amino]-6,6-dimethyl-2-(pyridin-4-yl)-1,5,6,7-tetrahydro-4H-indol-4-one] | 13.2 nM |
| CC1CC(=O)c2c([nH]c(-c3ccncc3)c2Nc2ccccc2)C1 (stereo not shown) [Example 22, 6-methyl-3-(phenylamino)-2-(pyridin-4-yl)-1,5,6,7-tetrahydro-4H-indol-4-one] | 10.5 nM |
